pIC50: −log10 of the molar value.
Tests used:
[1] = target: T1, human IGF-1R (Homo sapiens, UniProt P08069); experiment: In vitro IGF-1R kinase assay (HTRF); assay type: biochemical; conditions: intracellular kinase domain GST fusion, ATP 20 μM, 1 hour at 23° C., read-out: IGFIR-Activity
T1 construct: IGFRK and IRK enzyme used for the assay was intracellular kinase domain of human IGF-1R and human IR; made in house
Experimental: The in vitro kinase assays using IGF-1R and IR kinase GST fusion proteins were conducted using a homogeneous time-resolved fluorescence (HTRF) format. […] The standard enzyme reaction buffer consisted of 50 mM Tris HCL (pH: 7.4), 1 mM EGTA, 10 mM MgCl2, 2 mM DTT, 0.01% Tween-20, IGF-1R/IR kinase enzyme, poly GT peptide substrate (Perkin Elmer [Ulight Glu-Tyr (4:1)]n) and ATP [concentration equivalent to Kmapp]. […] Briefly, 2.5 μL enzyme and 2.5 μL inhibitor was pre-incubated for 10 minutes at 23° C. followed by the addition of 2.5 μL of poly GT substrate (final concentration of 50 nM). Reaction was initiated with the addition of 2.5 μL of ATP (final concentration of 20 μM for IGF-1R assay and 10 μM for IR assay). After 1 hour incubation at 23° C., the kinase reaction was stopped with the addition of 5 μL EDTA (final concentration of 10 mM in 20 μL). Europium cryptate—labeled antiphosphotyrosine antibody PY20 (5 μL) was added (final concentration of 2 nM) and the mixture was allowed to equilibrate for 1 hour at 23° C. followed by reading the plate in an Envision plate reader. The intensity of light emission at 665 nm was directly proportional to the level of substrate phosphorylation. The IC50 values for inhibitors were determined by a four-parameter sigmoidal curve fit (Sigma plot or Graph pad).
IGFRK and IRK enzyme used for the assay was intracellular kinase domain of human IGF-1R and human IR cloned and expressed as GST fusion proteins using the baculovirus expression system and purified using glutathione—Sepharose column.

[2] = tested on: MCF7 cell line; experiment: Anti-proliferative assay (MTS/CCK-8), MCF7; assay type: cell-based; conditions: Homo sapiens; MCF7 (breast cancer) cells, 100 ng/mL IGF without FCS, 72 hours; read-out: Anti-proliferation IC50 (μM) MCF7 cell line
Experimental: (§1) Anti-proliferative potential of compounds was tested using various cell lines (details provided in Table 2) by MTS (Promega, Cat # G1111), a tetrazolium compound ((3-(4,5-dimethylthiazol-2-yl)-5-(3-carboxymethoxyphenyl)-2-(4-sulphophenyl)-2H-tetrazolium, inner salt; MTS) and Cell Counting kit-8 (CCK-8 a Dojindo's highly water-soluble tetrazolium salt of WST-8 [2-(2-methoxy-4-nitrophenyl)-3-(4-nitrophenyl)-5-(2,4-disulfophenyl)-2H-tetrazolium, monosodium salt]). MTS is a colorimetric assay for determining the number of viable cells in proliferation, cytotoxicity or chemosensitivity assays. This is used with an electron coupling reagent PMS (Phenazine methosulfate). MTS is bioreduced by cells into a formazan that is soluble in tissue culture medium. The absorbance of the formazan at 490 nm can be measured directly from 96 well assay plates without additional processing. Dehydrogenase enzymes found in metabolically active cells accomplish the conversion of MTS into the aqueous soluble formazan. The quantity of formazan product is directly proportional to the number of living cells in culture. In CCK-8, WST-8 is reduced by dehydrogenases in cells to give a yellow colored product formazan, which is measured at 450 nm.
(§2) For experimental purposes, cells were seeded at a density of 3000-5000 cells per well in 180 μL/well volume in transparent 96 well tissue culture plate (NUNC, USA) and incubated overnight at 37° C., 5% CO2. […] Plates were incubated for 3-4 hours and absorbance was measured at 490 nm on Spectrophotometer (SpectraMax, Molecular Devices). Percentage cytotoxicity and IC50 was calculated using SoftMax software. […] After 4 hour incubation, the absorbance was determined at 450 nm using Spectrophotometer (SpectraMax, Molecular Devices). […]

[3] = tested on: HT29 cell line; experiment: Anti-proliferative assay (MTS/CCK-8), HT29; assay type: cell-based; conditions: Homo sapiens, HT-29; HT29 (colon cancer) cells, 100 ng/mL IGF without FCS, 72 hours; read-out: Anti-proliferation IC50 (μM) HT29 cell line
Experimental: as §1, §2

[4] = target: T2, CYP3A4 (Homo sapiens, UniProt P08684); experiment: CYP inhibition fluorescence assay (rhCYP450, Vivid Invitrogen kit); assay type: in vitro ADME; conditions: recombinant human CYP3A4, 10 μM compound, read-out: % inhibition of CYP 3A4 at 10 μM
T2 construct: purchased Invitrogen (Vivid screening kits)
Experimental: The % inhibition @ 10 μM data was generated from an rhCYP450/fluorescence assay according to the Vivid Invitrogen screening kits. The compounds were screened against CYP 3A4 isoform because CYP3A4 is responsible for the metabolism of approximately 50-60% of clinical drugs. The lower the percentage inhibition, the lower the CYP450 inhibitory liability of that specific compound.

T1 sequence (P08069 999-1274 limits assumed): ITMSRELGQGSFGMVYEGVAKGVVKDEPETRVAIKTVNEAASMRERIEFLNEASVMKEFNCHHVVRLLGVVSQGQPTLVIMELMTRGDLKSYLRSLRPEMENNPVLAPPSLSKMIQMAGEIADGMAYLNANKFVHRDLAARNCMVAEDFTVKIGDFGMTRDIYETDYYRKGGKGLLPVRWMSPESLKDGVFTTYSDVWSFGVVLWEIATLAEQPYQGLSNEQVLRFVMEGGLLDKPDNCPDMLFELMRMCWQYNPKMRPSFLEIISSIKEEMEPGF
T2 sequence (P08684 whole entry): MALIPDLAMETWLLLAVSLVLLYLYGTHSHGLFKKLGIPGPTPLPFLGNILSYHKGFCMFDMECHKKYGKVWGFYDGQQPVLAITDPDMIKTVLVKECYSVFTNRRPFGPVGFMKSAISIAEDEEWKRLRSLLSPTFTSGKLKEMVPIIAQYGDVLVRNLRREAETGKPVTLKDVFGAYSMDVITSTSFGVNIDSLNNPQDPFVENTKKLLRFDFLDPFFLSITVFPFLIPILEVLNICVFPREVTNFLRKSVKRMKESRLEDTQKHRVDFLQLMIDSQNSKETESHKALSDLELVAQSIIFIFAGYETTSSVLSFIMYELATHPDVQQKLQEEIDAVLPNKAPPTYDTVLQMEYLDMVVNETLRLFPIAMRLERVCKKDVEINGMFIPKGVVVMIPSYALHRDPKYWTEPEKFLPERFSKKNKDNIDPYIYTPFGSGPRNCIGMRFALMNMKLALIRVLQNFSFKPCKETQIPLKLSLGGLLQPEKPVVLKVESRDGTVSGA

| Compound | pIC50 [1] | IC50 [2] [µM] | IC50 [3] [µM] | inhibition at 10 µM [4] [%] |
| --- | --- | --- | --- | --- |
| N#CCCNc1cc(Cl)cc2c(S(=O)(=O)N3CCO[C@H](COc4ccccc4)C3)c(C(N)=O)[nH]c12 [Compound 19, (S)-5-chloro-7-(2-cyanoethylamino)-3-(2-(phenoxymethyl)morpholinosulfonyl)-1H-indole-2-carboxamide] | 7.80 | < 1 | 5.3 | – |
| NC(=O)c1[nH]c2c(NC3CCOCC3)cc(Cl)cc2c1S(=O)(=O)N1CCO[C@H](COc2ccccc2)C1 [Compound 20, (S)-5-chloro-3-(2-(phenoxymethyl)morpholinosulfonyl)-7-(tetrahydro-2H-pyran-4-ylamino)-1H-indole-2-carboxamide] | > 7.00 | 0.8 | 2.8 | – |
| CCOC(=O)N1CCC(Nc2cc(Cl)cc3c(S(=O)(=O)N4CCO[C@H](COc5ccccc5)C4)c(C(N)=O)[nH]c23)CC1 [Compound 34, (S)-ethyl 4-(2-carbamoyl-5-chloro-3-(2-(phenoxymethyl)morpholinosulfonyl)-1H-indol-7-ylamino)piperidine-1-carboxylate] | 7.16 | 0.9 | 1.7 | 47 |

From patent publication US20140045832A1, “Insulin-Like Growth Factor-1 Receptor Inhibitors” (PIRAMAL ENTERPRISES LIMITED, priority 2011, published 2014)
